Data as given in article PMC10421270, “Investigation on Novel E/Z 2-Benzylideneindan-1-One-Based Photoswitches with AChE and MAO-B Dual Inhibitory Activity” (Molecules, 2023).
Several values for one entry are separate records, joined by “and”; a condition that tells them apart may be missing. Equal entries are not always repeated. Where two headings read alike, the source gives them in different places.

Tests used:
[1] = target: T1, human recombinant MAO B (Homo sapiens, UniProt P27338); test: biochemical; conditions: mean ± SD of three independent measurements
T1 construct: purchased Sigma Aldrich (Milan, Italy); host or cells: baculovirus-infected insect cells
T1 sequence (P27338 1-520): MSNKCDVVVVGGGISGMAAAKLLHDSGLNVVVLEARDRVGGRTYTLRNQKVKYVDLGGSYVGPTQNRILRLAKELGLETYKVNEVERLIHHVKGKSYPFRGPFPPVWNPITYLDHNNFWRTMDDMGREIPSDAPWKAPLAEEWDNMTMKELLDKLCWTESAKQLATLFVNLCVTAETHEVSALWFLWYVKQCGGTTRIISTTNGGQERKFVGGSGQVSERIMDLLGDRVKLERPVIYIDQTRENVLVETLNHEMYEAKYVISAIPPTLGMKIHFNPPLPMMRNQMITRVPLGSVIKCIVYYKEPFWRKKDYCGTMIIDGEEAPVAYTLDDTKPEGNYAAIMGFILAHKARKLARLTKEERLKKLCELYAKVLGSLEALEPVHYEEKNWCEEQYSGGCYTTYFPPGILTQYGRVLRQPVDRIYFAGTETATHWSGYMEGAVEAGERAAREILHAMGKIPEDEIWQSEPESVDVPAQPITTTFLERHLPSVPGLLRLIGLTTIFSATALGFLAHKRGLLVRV
Method: In MAOs’ inhibition assays, each test compound, at 10 μM concentration, was preincubated for 20 min at 37 °C with 50 μM kynuramine as the substrate in 0.1 M phosphate-buffered solution (PBS) pH 8.0 made 0.39 osmolar with KCl. After the addition of human recombinant MAO-A (250 U/mg) or MAO B (59 U/mg) and a further 30 min of incubation, NaOH was added, and the fluorescence read at 310/400 nm excitation/emission wavelength. […] For the kinetic study on the inhibition mechanism of MAO B, three diverse scalar concentrations of the inhibitor and seven concentrations of kynuramine were used [40, 61, 62].

[2] = target: T2, hAChE (Homo sapiens, UniProt P22303); test: biochemical; type: biochemical
T2 construct: purchased Sigma Aldrich (Milan, Italy)
T2 sequence (P22303 32-614): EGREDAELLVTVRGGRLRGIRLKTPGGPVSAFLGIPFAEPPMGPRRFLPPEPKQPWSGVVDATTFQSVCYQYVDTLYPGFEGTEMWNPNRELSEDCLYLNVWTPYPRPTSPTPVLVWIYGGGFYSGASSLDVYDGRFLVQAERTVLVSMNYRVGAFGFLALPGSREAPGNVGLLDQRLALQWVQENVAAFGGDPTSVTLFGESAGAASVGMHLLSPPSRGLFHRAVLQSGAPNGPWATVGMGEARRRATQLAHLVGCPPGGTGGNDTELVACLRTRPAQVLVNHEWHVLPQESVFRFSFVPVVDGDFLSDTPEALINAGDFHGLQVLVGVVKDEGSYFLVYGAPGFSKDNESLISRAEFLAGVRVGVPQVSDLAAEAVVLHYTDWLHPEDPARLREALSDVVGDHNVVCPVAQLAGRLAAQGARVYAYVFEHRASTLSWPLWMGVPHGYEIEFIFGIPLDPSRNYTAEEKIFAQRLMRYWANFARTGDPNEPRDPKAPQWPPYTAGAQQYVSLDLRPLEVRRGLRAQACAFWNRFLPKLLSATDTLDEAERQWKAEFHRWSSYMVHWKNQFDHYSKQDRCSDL

[3] = target: T3, BChE from human serum (Homo sapiens, UniProt P06276); test: biochemical; conditions: for inhibition at 10 µM: read-out: BChE % inhibition at 10 μM, 10 μM, values in parentheses, n.a. = not active; for IC50: mean ± SD of three independent measurements
T3 construct: BChE from human serum; purchased Sigma Aldrich (Milan, Italy); host or cells: human serum
T3 sequence (P06276 29-602): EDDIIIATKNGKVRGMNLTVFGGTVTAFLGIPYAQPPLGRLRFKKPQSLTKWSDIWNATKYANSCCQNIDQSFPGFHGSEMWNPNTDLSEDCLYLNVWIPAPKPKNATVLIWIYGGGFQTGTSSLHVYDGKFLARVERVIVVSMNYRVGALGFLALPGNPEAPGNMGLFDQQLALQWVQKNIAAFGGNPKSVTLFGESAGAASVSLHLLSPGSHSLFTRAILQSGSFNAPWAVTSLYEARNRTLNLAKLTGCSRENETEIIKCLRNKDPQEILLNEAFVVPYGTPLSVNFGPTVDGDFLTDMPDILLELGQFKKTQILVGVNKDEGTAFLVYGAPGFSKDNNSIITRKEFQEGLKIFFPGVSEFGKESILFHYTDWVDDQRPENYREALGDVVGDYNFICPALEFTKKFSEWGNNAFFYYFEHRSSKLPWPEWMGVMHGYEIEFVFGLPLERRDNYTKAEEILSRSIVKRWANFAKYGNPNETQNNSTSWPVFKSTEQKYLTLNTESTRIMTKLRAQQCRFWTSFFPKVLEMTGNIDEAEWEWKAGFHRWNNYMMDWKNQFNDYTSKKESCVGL
Method: Human isoforms of ChEs (human recombinant AChE and BChE from human serum) and MAOs (from baculovirus-infected insect cells), purchased from Sigma Aldrich (Milan, Italy), were used for inhibition assays. Experiments were performed in 96-well plates (Greiner Bio-One, Kremsmünster, Austria) on the Infinite M1000 Pro plate reader (Tecan, Cernusco s.N., Italy), using already published protocols [46, 58, 59, 60].

[4] = target: T4, human recombinant MAO-A (Homo sapiens, UniProt P21397); test: biochemical; conditions: for inhibition at 10 µM: read-out: MAO-A % inhibition at 10 μM, human MAO-A, values in parentheses; for IC50: MAO-A IC50, human MAO-A, mean ± SD of three independent measurements
T4 construct: purchased Sigma Aldrich (Milan, Italy); host or cells: baculovirus-infected insect cells
T4 sequence (P21397 1-527): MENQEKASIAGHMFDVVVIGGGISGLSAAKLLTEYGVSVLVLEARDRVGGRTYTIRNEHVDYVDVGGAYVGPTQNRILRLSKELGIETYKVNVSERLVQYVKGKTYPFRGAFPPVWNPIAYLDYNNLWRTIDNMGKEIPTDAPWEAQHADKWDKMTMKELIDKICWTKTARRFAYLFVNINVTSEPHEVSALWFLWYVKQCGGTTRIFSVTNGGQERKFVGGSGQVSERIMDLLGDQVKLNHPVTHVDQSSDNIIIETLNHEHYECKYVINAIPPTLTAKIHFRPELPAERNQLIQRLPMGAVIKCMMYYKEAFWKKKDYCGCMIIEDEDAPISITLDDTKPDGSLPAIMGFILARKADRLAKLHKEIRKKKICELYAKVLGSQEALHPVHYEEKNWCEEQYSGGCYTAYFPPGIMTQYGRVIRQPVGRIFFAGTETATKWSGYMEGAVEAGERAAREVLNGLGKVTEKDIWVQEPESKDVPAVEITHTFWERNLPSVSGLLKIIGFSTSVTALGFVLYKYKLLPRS

[5] = target: T2, hAChE; design: method as in PMID 35923722; conditions: read-out: AChE IC50; previously reported values; ref [40]; listed as E-1; cited from earlier work
[6] = design: method as in PMID 35923722; conditions: ref [40]; cited from earlier work
[7] = UV-B photoisomerization to the photostationary state (1H NMR); type: physicochemical; conditions: 10 mM in methanol, two 15 W UV-B lamps, 24 °C; almost completed
Method: Using ^1H NMR spectroscopy, the formation of the Z diastereoisomer can be determined with confidence. Specifically, as previously done for 1a, methanol-d4 solutions of compounds 1b–e at a concentration of about 10 mM were irradiated with UV-B light in a Pyrex NMR tube and observed until the photostationary state (PSS) was reached.
The same procedure was followed for compounds 1f–h. However, due to the poor solubility in methanol at the concentrations required for ^1H NMR analysis, 1f–h was irradiated and monitored in an acetone-d6 solution. The diastereomeric E/Z ratio of the obtained PSS-1b–h was determined by calculating the area of the easily distinguishable signals assigned to the E and Z isomers (Figure 4).
The solution was irradiated with UV-B light until reaching the PSSUV-B (almost completed in 50–80 min). Subsequently, the PSSUV-B solution was irradiated under the same conditions with UV-C light generated using two lamps (15 Watt GT15T8 Hg UV-C tube), observing the photoconversion of the cis isomer into the trans isomer without the appearance of photodegradation.

[8] = target: T2, hAChE; test: AChE inhibition kinetics (Lineweaver–Burk, replot of slopes); type: biochemical
[9] = design: method as in PMID 35923722; conditions: Z isomer, thermal reversion; ref [40]; cited from earlier work
[10] = human AChE, mean ± SD of three independent measurements, read-out: AChE IC50

Compound	IC50 [1]	inhibition at 10 µM [3]	inhibition at 10 µM [4]	IC50 [3]	IC50 [2, 10]	other results
CCN(CC)Cc1ccc(C=C2Cc3cc(OC)ccc3C2=O)cc1 (mixture of isomers) [E/Z-1a]	1590 ± 40 nM	28%	45%			IC50 [2]: 780 ± 13 nM
CCN(CC)Cc1ccc(/C=C2\Cc3cc(OC)ccc3C2=O)cc1 [Compound E-1a, 2-(4-((diethylamino)methyl)benzylidene)-5-methoxy-2,3-dihydro-1H-inden-1-one]	260 ± 12 nM		33%	10000 ± 150 nM		IC50 [5]: 110 nM; IC50 [2]: 105 ± 5 nM; Z-isomer in the photostationary state (PSS) after UV-B light [6]: 75%
COc1ccc2c(c1)C/C(=C\c1ccc(CN(C)C)cc1)C2=O [Compound E-1b, (E)-2-(4-((Dimethylamino)methyl)benzylidene)-5-methoxy-2,3-dihydro-1H-inden-1-one]	686 ± 59 nM		33%		155 ± 10 nM	
CCCN(CCC)Cc1ccc(/C=C2\Cc3cc(OC)ccc3C2=O)cc1 [Compound E-1c, (E)-2-(4-((Dipropylamino)methyl)benzylidene)-5-methoxy-2,3-dihydro-1H-inden-1-one]	479 ± 81 nM	28%	15%		174 ± 17 nM	time to reach PSS under UV-B irradiation [7]: 50 to 80 min
CCCCN(CCCC)Cc1ccc(/C=C2\Cc3cc(OC)ccc3C2=O)cc1 [Compound E-1d, (E)-2-(4-((Dibutylamino)methyl)benzylidene)-5-methoxy-2,3-dihydro-1H-inden-1-one]	338 ± 36 nM	28%	12%		990 ± 50 nM	
CCCCN(C)Cc1ccc(/C=C2\Cc3cc(OC)ccc3C2=O)cc1 [Compound E-1e, (E)-2-(4-((Butyl(methyl)amino)methyl)benzylidene)-5-methoxy-2,3-dihydro-1H-inden-1-one]	178 ± 86 nM		20%	5000 ± 450 nM	102 ± 19 nM	
COc1ccc2c(c1)C/C(=C\c1ccc(CN(C(C)C)C(C)C)cc1)C2=O [Compound E-1f, (E)-2-(4-((Diisopropylamino)methyl)benzylidene)-5-methoxy-2,3-dihydro-1H-inden-1-one]			22%	10000 ± 850 nM	261 ± 14 nM	
COc1ccc2c(c1)C/C(=C\c1ccc(CN(C)Cc3ccccc3)cc1)C2=O [Compound E-1g, (E)-2-(4-((Benzyl(methyl)amino)methyl)benzylidene)-5-methoxy-2,3-dihydro-1H-inden-1-one]	292 ± 60 nM		39%	9900 ± 110 nM	115 ± 4 nM	
CCN(Cc1ccccc1)Cc1ccc(/C=C2\Cc3cc(OC)ccc3C2=O)cc1 [Compound E-1h, (E)-2-(4-((Benzyl(ethyl)amino)methyl)benzylidene)-5-methoxy-2,3-dihydro-1H-inden-1-one]	355 ± 134 nM		13%	7000 ± 10 nM	39 ± 1 nM	decrease of AChE inhibitory potency on photoisomerization to Z (75% Z in PSS) ([2]; PSS mixture versus pure E isomer): about 30%; mechanism of AChE inhibition ([8]; Lineweaver–Burk, both Vmax and Km changed): mixed-type inhibition; Ki ([8]; replot of slopes versus [I], x-axis intercept, hAChE 0.2 U/mL, acetylthiocholine iodide 50–300 μM): 100 nM
CCN(CC)Cc1ccc(/C=C2/Cc3cc(OC)ccc3C2=O)cc1 [Compound Z-1a]						half-life in MeOH at room temperature [9]: 47 days
COc1ccc2c(c1)CC(=Cc1ccc(CN(C)C)cc1)C2=O [E/Z-1b]	839 ± 123 nM	25%	32%		915 ± 138 nM	
CCCN(CCC)Cc1ccc(C=C2Cc3cc(OC)ccc3C2=O)cc1 [E/Z-1c]	743 ± 48 nM	20%			295 ± 45 nM	IC50 [4]: ~3000 nM and 2980 nM
CCCCN(CCCC)Cc1ccc(C=C2Cc3cc(OC)ccc3C2=O)cc1 [E/Z-1d]	382 ± 6 nM		37%		2280 ± 210 nM	
CCCCN(C)Cc1ccc(C=C2Cc3cc(OC)ccc3C2=O)cc1 [E/Z-1e]	651 ± 61 nM		25%		1360 ± 60 nM	
COc1ccc2c(c1)CC(=Cc1ccc(CN(C(C)C)C(C)C)cc1)C2=O [E/Z-1f]	241 ± 26 nM	20%			1410 ± 90 nM	IC50 [4]: ~3000 nM and 3190 nM
COc1ccc2c(c1)CC(=Cc1ccc(CN(C)Cc3ccccc3)cc1)C2=O [E/Z-1g]	354 ± 70 nM	40%	49%		135 ± 62 nM	
CCN(Cc1ccccc1)Cc1ccc(C=C2Cc3cc(OC)ccc3C2=O)cc1 [E/Z-1h]	358 ± 8 nM		39%	10000 ± 320 nM	53 ± 6 nM	
